For one series, the system named is mice. Nature of the series: intravenous toxicity in mice. The format is in vivo. As to conditions: solution of 300 mg I/ml, injection rate 20 g 1/kg/min. As for the experimental part: The intravenous toxicity was determined in mice, after administration of a solution of 300 mg I/ml at an injection rate of 20 g 1/kg/min.
Another series can be described thus: physchem. As to conditions: water.

Each structure is given as a SMILES string. ≈ marks a conversion by molar mass, not a printed value.

As usually defined, the solubility is the concentration that dissolves in the medium under given conditions. A high value points to much dissolved substance.

Take `CC(=O)Nc1c(I)c(C(=O)NCC(=O)N(CCO)CCO)c(I)c(C(=O)NCC(=O)N(CCO)CCO)c1I` [The compound]: the LD50 in the series with mice came to 15.4 g I/kg. Further, in the series “physchem”, the solubility is around 3000 mg/mL (≈ 3370 mM).

For the origin of these results see EP0129932A1, “N,N,N',N'-tetra (hydroxyethyl)-5-acetylamino-2,4,6-triiodoisophtaloyldiglycinamide, a process for the preparation of said compound and an X-ray contrast agent containing said compound” (DAGRA N.V., priority 1983, dated 1985).
